Laboratory results: US20240132522A1, “HETEROCYCLIC COMPOUNDS AND METHODS OF USE THEREOF” (1cBio, Inc., priority 2022, published 2024)
pIC50: −log10 of the molar value. Counter-ions that a name gives are not always drawn.

Key:
[1] = tested on: DLD-1 wild-type colorectal adenocarcinoma cells; assay: Cell viability assay (Cell Titer-Glo), DLD-1 wild-type; format: cell-based; settings: Homo sapiens, DLD-1, 168 h, 7 days, 50 cells/well
Excerpt: (§1) In some embodiments, the biological assay measures the effects that compounds of the present disclosure may have on the viability of cells, e.g., the viability of cancer cells. In some embodiments, DLD-1 wild-type and DLD-1 BRCA2(−/−) colorectal adenocarcinoma cells, an isogenic pair of cell lines differing in the presence and absence, respectively, of both BRCA2 alleles, are used to measure the effect of the disclosed compounds on the viability of cancer cells.
(§2) In some embodiments, the cells are harvested during the logarithmic growth period, counted, and seeded at a specified count in the wells of a 96- or 384-well cell culture plate. In some embodiments, after seeding, the cells are incubated, e.g., at 37° C., 5% CO2 overnight. In some embodiments, the cells are treated with compounds, e.g., with serially diluted test compounds at 8-11 concentrations within a desired concentration range, e.g., from 1 nM-10 μM, for the generation of dose-response curves. In some embodiments, the plate is further incubated, e.g., for another 3-7 days in a humidified incubator at 37° C. and 5% CO2. In some embodiments, cell viability is assessed by luminescence measurement after addition of Cell Titer-Glo reagent (Promega, Madison, Wis.) according to the manufacturer's instructions. In some embodiments, cell viability IC50 values are calculated using XLFit, equation 201: y=A+((B−A)/(1+((x/C)^D))), where A=bottom, B=top, C=IC50, and D=slope. In some embodiments, the effects of the test compounds on the viability of other cell lines such as MDA-MB-436, MDA-MB-231, SUM149PT, HCC1395, and UWB1.289 are determined in an analogous method.
(§3) Compounds of the present disclosure were tested for their effects on the viability of cancer cells. DLD-1 wild-type and DLD-1 BRCA2(−/−) colorectal adenocarcinoma cells, an isogenic pair of cell lines differing in the presence and absence, respectively, of both BRCA2 alleles, were used. The cells were harvested during the logarithmic growth period, counted, and seeded at 50 cells/well for DLD-1 wild-type and 200 cells/well for DLD-1 BRCA2(−/−) in a 384-well cell culture plate. After seeding, cells were incubated at 37° C., 5% CO2 overnight. Cells were treated with serially diluted test compounds at 10 concentrations from 1.5 nM-30 μM) for generation of dose response curves. The plate was further incubated for another 7 days in a humidified incubator at 37° C. and 5% CO2. Cell viability was assessed by luminescence measurement after addition of Cell Titer-Glo reagent (Promega, Madison, Wis.) according to the manufacturer's instructions. Cell viability IC50 values were calculated using XLFit, equation 201: y=A+((B−A)/(1+((x/C)^D))), where A=bottom, B=top, C=IC50, and D=slope. IC50 values are shown in Table B and are presented in ranges, in which “+++”<300 nM, 300 nM≤“++”<3000 nM, and “+”≥3000 nM. Effects of the test compounds on the viability of other cell lines such as MDA-MB-436, MDA-MB-231, SUM149PT, HCC1395, and UWB1.289 are determined in an analogous method.

[2] = tested on: DLD-1 BRCA2(−/−) colorectal adenocarcinoma cells; assay: Cell viability assay (Cell Titer-Glo), DLD-1 BRCA2(−/−); format: cell-based; settings: Homo sapiens, DLD-1, 168 h, 7 days, 200 cells/well
Excerpt: as §1, §2, §3

CCc1cc2ncc(CN3CCCN(c4ccc(C(=O)NC)nc4)CC3)cc2[nH]c1=O [Compound No. 6, 5-(4-((7-ethyl-6-oxo-5H-1,5-naphthyridin-3-yl)methyl)-1,4-diazepan-1-yl)-N-methylpyridine-2-carboxamide]
pIC50 [1]: ≤ 5.52 | pIC50 [2]: ≤ 5.52

CCc1cc2ncc(CN3CC4CN(c5ccc(C(=O)NC)nc5)CC4C3)cc2[nH]c1=O (centres unmarked) [Compound No. 7, 5-(5-((7-ethyl-6-oxo-5,6-dihydro-1,5-naphthyridin-3-yl)methyl)hexahydropyrrolo[3,4-c]pyrrol-2(1H)-yl)-N-methylpicolinamide]
pIC50 [1]: ≤ 5.52 | pIC50 [2]: 5.52 to 6.52

CCc1cc2ncc(CN3CC4(C3)CN(c3ccc(C(=O)NC)nc3)C4)cc2[nH]c1=O [Compound No. 9, 5-(6-((7-ethyl-6-oxo-5,6-dihydro-1,5-naphthyridin-3-yl)methyl)-2,6-diazaspiro[3.3]heptan-2-yl)-N-methylpicolinamide formate]
pIC50 [1]: ≤ 5.52 | pIC50 [2]: ≤ 5.52

CCc1cc2ncc(CNC3CC(Nc4ccc(C(=O)NC)nc4)C3)cc2[nH]c1=O (centres unmarked) [Compound No. 29, 5-((3-(((7-ethyl-6-oxo-5,6-dihydro-1,5-naphthyridin-3-yl)methyl)amino)cyclobutyl)amino)-N-methylpicolinamide]
pIC50 [1]: ≤ 5.52 | pIC50 [2]: ≤ 5.52
